Patent publication EP4206196A1, “PYRIMIDINE SUBSTITUTED DERIVATIVES AS TYK2 INHIBITORS” (Almirall S.A., priority 2021, dated 2023)

Experiments:
[1] = target: T1, TYK2 (JH2domain-pseudokinase) (Homo sapiens, UniProt P29597); assay: TYK2 JH2 domain binding assay (KINOMEscan)
T1 construct: TYK2 (JH2domain-pseudokinase)-tagged T7 phage strains were prepared in an E. coli host derived from the BL21 strain; made in house; host or cells: E. coli BL21-derived host (T7 phage) or HEK-293 cells
Procedure, shortened: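 Competition binding of DNA-tagged TYK2 JH2 pseudokinase domain against immobilised affinity ligand, 1 h at room temperature in SeaBlock/PBS/Tween/DTT buffer with about 1% DMSO. Bound kinase eluted and quantified by qPCR. Kd taken from 11-point 3-fold series, usually 30,000 nM top, fitted by Levenberg-Marquardt nonlinear least squares.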

[2] = test system: STAT1/3 through TYK2/JAK1; assay: IFNa induced STAT phosphorylation in HEK293 cells (SIE-bla reporter gene); assay type: cell-based; settings: Homo sapiens, HEK293; HEK293T-sie-bla cells, IFNa at EC80, 4 hours; read-out: Inhibition of IFNa induced STAT phosphorylation HEK293 cells IC50
Procedure, shortened: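 HEK293T cells carrying a SIE-driven β-lactamase reporter were co-treated with compound (1/5 serial dilution, 10 points, 0.1% DMSO final) and IFNa at EC80 for 4 h at 37°C. β-Lactamase substrate was added to stop the stimulation, followed by overnight dark incubation and FRET read. IC50 from a four-parameter logistic fit.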

T1 sequence (P29597 589-875 limits assumed): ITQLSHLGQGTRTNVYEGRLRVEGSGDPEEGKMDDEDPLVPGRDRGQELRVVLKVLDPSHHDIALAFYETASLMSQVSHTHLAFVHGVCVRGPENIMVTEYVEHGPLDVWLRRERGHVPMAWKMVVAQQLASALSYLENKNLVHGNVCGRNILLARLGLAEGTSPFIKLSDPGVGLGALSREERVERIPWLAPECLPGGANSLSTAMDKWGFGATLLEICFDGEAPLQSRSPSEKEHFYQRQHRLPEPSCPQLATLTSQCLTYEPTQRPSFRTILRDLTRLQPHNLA

Compound | Kd [1] | IC50 [2]
COc1c(Nc2cc(Nc3cc(C)ncn3)ncn2)cc(C)cc1-c1ncn(C)n1 [Example 104, 4-N-[2-methoxy-5-methyl-3-(1-methyl-1,2,4-triazol-3-yl)phenyl]-6-N-(6-methylpyrimidin-4-yl)pyrimidine-4,6-diamine] | 0.0002 to 0.001 µM | 0.1 to 1 µM
Cc1cc(Nc2cc(Nc3ccc(C4CCCOC4)cc3N(C)S(C)(=O)=O)ncn2)nc(C)n1 (stereo not drawn) [Example 105, N-[2-[[6-[(2,6-dimethylpyrimidin-4-yl)amino]pyrimidin-4-yl]amino]-5-tetrahydropyran-3-yl-phenyl]-N-methyl-methanesulfonamide] | < 0.0002 µM | < 0.01 µM
Cc1cc(Nc2cc(Nc3ccc(C4CCOCC4)cc3N(C)S(C)(=O)=O)ncn2)nc(C)n1 [Example 106, N-[2-[[6-[(2,6-dimethylpyrimidin-4-yl)amino]pyrimidin-4-yl]amino]-5-tetrahydropyran-4-yl-phenyl]-N-methyl-methanesulfonamide] | < 0.0002 µM | 0.01 to 0.1 µM
Cc1cc(Nc2cc(Nc3ccc(C4CCCCO4)cc3N(C)S(C)(=O)=O)ncn2)nc(C)n1 (stereo not drawn) [Example 107, N-[2-[[6-[(2,6-dimethylpyrimidin-4-yl)amino]pyrimidin-4-yl]amino]-5-tetrahydropyran-2-yl-phenyl]-N-methyl-methanesulfonamide] | < 0.0002 µM | < 0.01 µM
C=Cc1ccc(Nc2cc(Nc3cc(C)nc(C)n3)ncn2)c(N(C)S(C)(=O)=O)c1 [Example 108, N-[2-[[6-[(2,6-dimethylpyrimidin-4-yl)amino]pyrimidin-4-yl]amino]-5-vinyl-phenyl]-N-methyl-methanesulfonamide] | < 0.0002 µM | < 0.01 µM
Cc1cc(Nc2cc(Nc3ccc(Cc4ccccc4)cc3N(C)S(C)(=O)=O)ncn2)nc(C)n1 [Example 109, N-[5-benzyl-2-[[6-[(2,6-dimethylpyrimidin-4-yl)amino]pyrimidin-4-yl]amino]phenyl]-N-methyl-methanesulfonamide] | < 0.0002 µM | < 0.01 µM
Cc1cc(Nc2cc(Nc3ccc(C4CCNC4)cc3N(C)S(C)(=O)=O)ncn2)nc(C)n1 (stereo not drawn) [Example 110, N-[2-[[6-[(2,6-dimethylpyrimidin-4-yl)amino]pyrimidin-4-yl]amino]-5-pyrrolidin-3-yl-phenyl]-N-methyl-methanesulfonamide] | 0.001 to 0.01 µM | 0.1 to 1 µM
Cc1cc(Nc2cc(Nc3ccc(C4CCOC4)cc3N(C)S(C)(=O)=O)ncn2)nc(C)n1 (stereo not drawn) [Example 111, N-[2-[[6-[(2,6-dimethylpyrimidin-4-yl)amino]pyrimidin-4-yl]amino]-5-tetrahydrofuran-3-yl-phenyl]-N-methyl-methanesulfonamide] | < 0.0002 µM | 0.01 to 0.1 µM
CN=S(C)(=O)c1ccccc1Nc1cc(Nc2cc(C)nc(C)n2)ncn1 (stereo not drawn) [Example 112, N6-(2,6-dimethylpyrimidin-4-yl)-N4-[2-(N,S-dimethylsulfonimidoyl)phenyl]pyrimidine-4,6-diamine] | < 0.0002 µM | 0.01 to 0.1 µM
CN=S(C)(=O)c1cc(-c2cnn(C)c2C)ccc1Nc1cc(Nc2cc(C)nc(C)n2)ncn1 (stereo not drawn) [Example 113, N4-[4-(1,5-dimethylpyrazol-4-yl)-2-(N,S-dimethylsulfonimidoyl)phenyl]-N6-(2,6-dimethylpyrimidin-4-yl)pyrimidine-4,6-diamine] | < 0.0002 µM | < 0.01 µM
Cc1cc(Nc2cc(Nc3ccc(C4CCCO4)cc3N(C)S(C)(=O)=O)ncn2)nc(C)n1 (stereo not drawn) [Example 114, N-[2-[[6-[(2,6-dimethylpyrimidin-4-yl)amino]pyrimidin-4-yl]amino]-5-tetrahydrofuran-2-yl-phenyl]-N-methyl-methanesulfonamide] | < 0.0002 µM | < 0.01 µM
COCc1ccc(Nc2cc(Nc3cc(C)nc(C)n3)ncn2)c(N(C)S(C)(=O)=O)c1 [Example 115, N-[2-[[6-[(2,6-dimethylpyrimidin-4-yl)amino]pyrimidin-4-yl]amino]-5-(methoxymethyl)phenyl]-N-methyl-methanesulfonamide] | < 0.0002 µM | < 0.01 µM
CN=S(C)(=O)c1c(C)cccc1Nc1cc(Nc2cc(C)nc(C)n2)ncn1 (stereo not drawn) [Example 116, N6-(2,6-dimethylpyrimidin-4-yl)-N4-[2-(N,S-dimethylsulfonimidoyl)-3-methyl-phenyl]pyrimidine-4,6-diamine] | 0.0002 to 0.001 µM | 0.01 to 0.1 µM
COc1cc(C2CCOC2)ccc1Nc1cc(Nc2cc(C)nc(C)n2)ncn1 (stereo not drawn) [Example 117, N4-(2,6-dimethylpyrimidin-4-yl)-N6-(2-methoxy-4-tetrahydrofuran-3-yl-phenyl)pyrimidine-4,6-diamine] | 0.001 to 0.01 µM | > 1 µM
Cc1cc(Nc2cc(Nc3ncccc3N(C)S(C)(=O)=O)ncn2)nc(C)n1 [Example 120, N-[2-[[6-[(2,6-dimethylpyrimidin-4-yl)amino]pyrimidin-4-yl]amino]-3-pyridyl]-N-methyl-methanesulfonamide] | < 0.0002 µM | 0.01 to 0.1 µM
[2H]C([2H])([2H])N(c1cccnc1Nc1cc(Nc2cc(C)nc(C)n2)ncn1)S(C)(=O)=O [Example 121, N-[2-[[6-[(2,6-dimethylpyrimidin-4-yl)amino]pyrimidin-4-yl]amino]-3-pyridyl]-N-(trideuteriomethyl)methanesulfonamide] | < 0.0002 µM | 0.01 to 0.1 µM
Cc1cc(Nc2cc(Nc3ncc(-c4nc(C(F)(F)F)n(C)n4)cc3N(C)S(C)(=O)=O)ncn2)nc(C)n1 [Example 122, N-[2-[[6-[(2,6-dimethylpyrimidin-4-yl)amino]pyrimidin-4-yl]amino]-5-[1-methyl-5-(trifluoromethyl)-1,2,4-triazol-3-yl]-3-pyridyl]-N-methyl-methanesulfonamide] | < 0.0002 µM | 0.01 to 0.1 µM
Cc1cc(Nc2cc(Nc3ncc(-c4ncn(C)n4)cc3N(C)S(C)(=O)=O)ncn2)nc(C)n1 [Example 123, N-[2-[[6-[(2,6-dimethylpyrimidin-4-yl)amino]pyrimidin-4-yl]amino]-5-(1-methyl-1,2,4-triazol-3-yl)-3-pyridyl]-N-methyl-methanesulfonamide] | 0.001 to 0.01 µM | 0.01 to 0.1 µM
Cc1cc(Nc2cc(Nc3ncc(-c4ccnn4C)cc3N(C)S(C)(=O)=O)ncn2)nc(C)n1 [Example 127, N-[2-[[6-[(2,6-dimethylpyrimidin-4-yl)amino]pyrimidin-4-yl]amino]-5-(2-methylpyrazol-3-yl)-3-pyridyl]-N-methyl-methanesulfonamide] | 0.0002 to 0.001 µM | 0.01 to 0.1 µM
Cc1cc(Nc2cc(Nc3ncc(-c4nccn4C)cc3N(C)S(C)(=O)=O)ncn2)nc(C)n1 [Example 128, N-[2-[[6-[(2,6-dimethylpyrimidin-4-yl)amino]pyrimidin-4-yl]amino]-5-(1-methylimidazol-2-yl)-3-pyridyl]-N-methyl-methanesulfonamide] | < 0.0002 µM | 0.1 to 1 µM
Cc1cc(Nc2cc(Nc3ncc(-c4cc(C)nn4C)cc3N(C)S(C)(=O)=O)ncn2)nc(C)n1 [Example 129, N-[5-(2,5-dimethylpyrazol-3-yl)-2-[[6-[(2,6-dimethylpyrimidin-4-yl)amino]pyrimidin-4-yl]amino]-3-pyridyl]-N-methyl-methanesulfonamide] | < 0.0002 µM | 0.01 to 0.1 µM
Cc1cc(Nc2cc(Nc3ncc(-c4ncnn4C)cc3N(C)S(C)(=O)=O)ncn2)nc(C)n1 [Example 130, N-[2-[[6-[(2,6-dimethylpyrimidin-4-yl)amino]pyrimidin-4-yl]amino]-5-(2-methyl-1,2,4-triazol-3-yl)-3-pyridyl]-N-methyl-methanesulfonamide] | 0.0002 to 0.001 µM | 0.1 to 1 µM
Cc1cc(Nc2cc(Nc3ncc(-c4ccn(C)n4)cc3N(C)S(C)(=O)=O)ncn2)nc(C)n1 [Example 131, N-[2-[[6-[(2,6-dimethylpyrimidin-4-yl)amino]pyrimidin-4-yl]amino]-5-(1-methylpyrazol-3-yl)-3-pyridyl]-N-methyl-methanesulfonamide] | < 0.0002 µM | 0.01 to 0.1 µM
COc1c(C)ccnc1Nc1cc(Nc2cc(C)nc(C)n2)ncn1 [Example 132, N4-(2,6-dimethylpyrimidin-4-yl)-N6-(3-methoxy-4-methyl-2-pyridyl)pyrimidine-4,6-diamine] | 0.0002 to 0.001 µM | 0.1 to 1 µM
Cc1cc(Nc2cc(Nc3ncc(-c4nnc(C)n4C)cc3N(C)S(C)(=O)=O)ncn2)nc(C)n1 [Example 134, N-[2-[[6-[(2,6-dimethylpyrimidin-4-yl)amino]pyrimidin-4-yl]amino]-5-(4,5-dimethyl-1,2,4-triazol-3-yl)-3-pyridyl]-N-methyl-methanesulfonamide] | 0.0002 to 0.001 µM | > 1 µM
[2H]C([2H])([2H])N(c1cc(-c2nnc(C)n2C)cnc1Nc1cc(Nc2cc(C)nc(C)n2)ncn1)S(C)(=O)=O [Example 136, N-[2-[[6-[(2,6-dimethylpyrimidin-4-yl)amino]pyrimidin-4-yl]amino]-5-(4,5-dimethyl-1,2,4-triazol-3-yl)-3-pyridyl]-N-(trideuteriomethyl)methanesulfonamide] | < 0.0002 µM | < 0.01 µM
Cc1cc(Nc2cc(Nc3ncc(-c4ncc(C)n4C)cc3N(C)S(C)(=O)=O)ncn2)nc(C)n1 [Example 140, N-[5-(1,5-dimethylimidazol-2-yl)-2-[[6-[(2,6-dimethylpyrimidin-4-yl)amino]pyrimidin-4-yl]amino]-3-pyridyl]-N-methyl-methanesulfonamide] | < 0.0002 µM | 0.01 to 0.1 µM
